# Results taken from article PMC7824897, “Selection of the First ^99mTc-Labelled Somatostatin Receptor Subtype 2 Antagonist for Clinical Translation—Preclinical Assessment of Two Optimized Candidates” (Pharmaceuticals, 2020).
# Where a SMILES comes first, the peptide text is derived from it. Bridges are numbered along the chain shown (N, C = ends). [ ]: non-standard residue; d: D form. The star is where a group is joined. N4 = 6-carboxy-1,4,8,11-tetraazaundecane chelator, NCCNCC(CNCCN)C(=O)*; dPhe(4-NHCONH2) = NC(=O)Nc1ccc(C[C@@H](N)C(=O)O)cc1; Phe(4-Cl) = N[C@@H](Cc1ccc(Cl)cc1)C(=O)O; X1 = NCCNCC(CNCCN)C(=O)*
# What was measured:
# [1] = target: T1, HEK-SST2 cells (human SST2 receptor) (Homo sapiens, UniProt P30874); assay: Internalization and cell-surface binding in HEK-SST2 cells; assay type: cell-based
# T1 construct: expressed in transfected cells; host or cells: HEK293 (HEK-SST2), provided by Prof; Stefan Schulz, Jena University Hospital
# T1 sequence (P30874 whole entry): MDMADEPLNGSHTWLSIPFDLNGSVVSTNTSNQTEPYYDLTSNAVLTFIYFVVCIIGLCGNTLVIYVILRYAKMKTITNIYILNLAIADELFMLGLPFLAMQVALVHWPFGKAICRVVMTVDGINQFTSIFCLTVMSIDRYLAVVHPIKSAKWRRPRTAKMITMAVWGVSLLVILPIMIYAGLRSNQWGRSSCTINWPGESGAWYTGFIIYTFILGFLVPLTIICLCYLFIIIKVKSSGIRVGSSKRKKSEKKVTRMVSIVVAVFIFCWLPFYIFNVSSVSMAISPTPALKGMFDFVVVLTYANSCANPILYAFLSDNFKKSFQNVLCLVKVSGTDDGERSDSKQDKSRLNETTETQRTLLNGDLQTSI
# [2] = design: species or system human
# From the text: To account for various possible locations of the tumour, we used two S-values. One was the value for the liver and is representative for the liver lesions. Other was the “average abdominal S-value”, which was the average S-value for the following organs: stomach, liver, gallbladder, spleen, pancreas, small intestine, kidneys, large intestine, and adrenal glands. Estimated dose to various organs, average total body dose and effective dose are summarized in Table 3 for both radiotracers and two typical tumour locations.
# Dosimetric calculations were based on the biodistribution of [^99mTc]Tc-TECANT-1 and [^99mTc]Tc-TECANT-2 (Table 3). […] Percent of injected activity per organ in a human model was evaluated according to the animal data extrapolation model:(2) (%IA/organ)human=[(%IA/g)mouse×Mmouse(g)]×(m(g)/M(kg))human
# Here m is the organ mass and M is the total body weight of mouse or human. Average total weight of the mouse was measured, while human phantom has the total weight of 73 kg. The %IA/g and %IA/organ is the percentage of the injected activity concentration (i.e., per gram of tissue) and per organ, respectively. For the tumour, we assumed that the percent of injected activity uptake into the tumour is the same for mouse and human.
# Subsequently, percentage of the injected activity per organ was folded with the decay curve of ^99mTc and interpolated with the exponential function. The interpolation function was used to estimate initial %ID/organ and the time-integrated activity concentration (TIAC). Absorbed dose per injected activity for various organs was calculated with the TIAC factors and S-values for a standard person from the OpenDose project. Effective dose was evaluated according to the ICRP 103 recommendations.
# We also assumed that the remaining activity from the organs and tumour ends up in the bladder.
# [3] = assay type: physicochemical; conditions: pH 7.4
# Experimental: Determination of the distribution coefficient (log D) was performed by the shake-flask method in 1:1 mixture of octanol/Phosphate buffered saline (PBS). Then, 50 µL of [^99mTc]Tc-TECANT-1 or [^99mTc]Tc-TECANT-2 solution was diluted up to 500 µL with PBS (pH 7.4; 8 mM phosphate). Next, 20 µL of this solution was added to six eppendorf tubes, each containing 500 µL octanol and 480 µL PBS. The samples were vortexed for 15 min at 1400 rpm followed by centrifugation for 2 min at 4500 rpm. Aliquots of 100 µL from each phase were taken and measured in a γ-counter. The log D was calculated as the average of the logarithmic values (n = 3, six technical replicates) of the ratio between the radioactivity in the octanol and the PBS phase.
# [4] = target: T1, HEK-SST2 cells (human SST2 receptor); assay: Dissociation of cell-surface bound radiotracer with or without competitor; assay type: cell-based
# in vivo = conditions: female, mouse, 20 pmol, total radioactivity
# [5] = target: T2, T7-epitope tagged human SST2 receptor (somatostatin receptor subtype 2) (human, UniProt P30874 1-369); assay: radioligand binding; competition on 5 x 10^5 HEK-SST2 cells in 96-well filter plates; radioligand [^177Lu]Lu-DOTA-TATE (1 nM); competitor 0.004 to 4000 nM; 2 h at 4 °C; TRIS buffer; apparent IC50; conditions: one partner purified
# T2 construct: somatostatin receptor subtype 2 (SST2), human, expressed in HEK293 cells; also called HEK-SST2 (the cells that express it); source: HEK293 cell line expressing it (HEK-SST2), provided by Professor Stefan Schulz; on intact cells
# T2 sequence (P30874 whole entry): as above
# [6] = target: T2, T7-epitope tagged human SST2 receptor …; assay: radioligand binding; dissociation with competitor: as without, but medium with 2.5 µM of the respective unlabelled TECANT analogue; conditions: one partner purified
# [7] = target: T2, T7-epitope tagged human SST2 receptor …; assay: radioligand binding; dissociation without competitor: radiotracer 0.25 nM bound to HEK-SST2 cells for 2 h at 4 °C, washed, then medium at 37 °C replaced at 10, 20, 30, 60, 120 and 240 min; cell-associated radiotracer left; conditions: one partner purified
# [8] = athymic nude-Foxn1^nu/Foxn1^+, Biodistribution Heart
# [9] = athymic nude-Foxn1^nu/Foxn1^+, Biodistribution Liver
# [10] = athymic nude-Foxn1^nu/Foxn1^+, Biodistribution Lung
# [11] = athymic nude-Foxn1^nu/Foxn1^+, Biodistribution Pancreas
# [12] = athymic nude-Foxn1^nu/Foxn1^+, Biodistribution Spleen
# [13] = athymic nude-Foxn1nu/Foxn1+, Biodistribution Adrenals
# [14] = athymic nude-Foxn1nu/Foxn1+, Biodistribution Blood
# [15] = athymic nude-Foxn1nu/Foxn1+, Biodistribution Bone
# [16] = athymic nude-Foxn1nu/Foxn1+, Biodistribution HEK-SST2 (+) tumour uptake
# [17] = athymic nude-Foxn1nu/Foxn1+, Biodistribution Intestine
# [18] = athymic nude-Foxn1nu/Foxn1+, Biodistribution Kidneys
# [19] = athymic nude-Foxn1nu/Foxn1+, Biodistribution Muscle
# [20] = athymic nude-Foxn1nu/Foxn1+, Biodistribution Pituitary
# [21] = athymic nude-Foxn1nu/Foxn1+, Biodistribution Stomach
molecule,measurement,setting,value
"C[C@@H](O)[C@@H]1NC(=O)[C@H](CCCCN)NC(=O)[C@@H](Cc2ccc(NC(N)=O)cc2)NC(=O)[C@H](Cc2ccc(O)cc2)NC(=O)[C@H](NC(=O)[C@H](Cc2ccc(Cl)cc2)NC(=O)C(CNCCN)CNCCN)CSSC[C@@H](C(=O)N[C@H](Cc2ccc(O)cc2)C(N)=O)NC1=O [[^99mTc]Tc-TECANT-1, metal not drawn] (X1-[Phe(4-Cl)][dC]Y[dPhe(4-NHCONH2)]KTC[dY]-NH2; disulfide 2-7)",internalization (internalized fraction),"[1]; 30 min, 37 °C",4.1 ± 0.1%
same,internalization (internalized fraction),"[1]; 4 h, 37 °C",13.4 ± 1.7%
same,cell surface binding,"[1]; 4 h, 37 °C, % of total radioactivity added",50.7 ± 1.7%
same,cellular uptake,[1]; at 2 h/37 °C,> 50%
same,Average total body dose,[2],3.2 μGy/MBq
same,Dose Bone,[2],3.9 μGy/MBq
same,Dose Muscle,[2],2.4 μGy/MBq
same,Dose Red marrow,[2],3.3 μGy/MBq
same,Dose Small intestine wall,[2],1.9 μGy/MBq
same,biological half-life of clearance of remaining activity (rest of the body) to the bladder,[2],9.7 h
same,effective dose,[2],4.9 mSv
same,logD,[3],-2.53 ± 0.19
same,fraction dissociated,"[4]; HEK-SST2 cells, at 2 h/37 °C",< 30%
same,estimated dissociation half-life,[4]; absence of competitor,98 min
same,total binding remaining (dissociation assay),"[4]; after 4 h, 37 °C, absence of competitor",58.8 ± 3.3%
same,estimated dissociation half-life,[4]; presence of competitor,19 min
same,bound fraction still remaining in the cells,"[4]; presence of excess of the competitor, 37 °C",7.9 ± 2.2%
same,tissue uptake at 1 h,in vivo; [8],0.71 ± 0.1 %ID/g
same,tissue uptake at 4 h,in vivo; [8],0.24 ± 0.06 %ID/g
same,tissue uptake at 24 h,in vivo; [8],0.05 ± 0.02 %ID/g
same,tissue uptake at 1 h,in vivo; [9],3.13 ± 0.43 %ID/g
same,tissue uptake at 4 h,in vivo; [9],1.9 ± 0.41 %ID/g
same,tissue uptake at 24 h,in vivo; [9],0.6 ± 0.1 %ID/g
same,tissue uptake at 1 h,in vivo; [10],8.94 ± 3.92 %ID/g
same,tissue uptake at 4 h,in vivo; [10],3.07 ± 1.16 %ID/g
same,tissue uptake at 24 h,in vivo; [10],0.26 ± 0.04 %ID/g
same,tissue uptake at 1 h,in vivo; [11],47.8 ± 7.86 %ID/g
same,tissue uptake at 4 h,in vivo; [11],16.9 ± 3.97 %ID/g
same,tissue uptake at 24 h,in vivo; [11],1.08 ± 0.19 %ID/g
same,tissue uptake at 1 h,in vivo; [12],1.3 ± 0.41 %ID/g
same,tissue uptake at 4 h,in vivo; [12],0.57 ± 0.11 %ID/g
same,tissue uptake at 24 h,in vivo; [12],0.2 ± 0.01 %ID/g
same,tissue uptake at 1 h,in vivo; [13],7.11 ± 3.04 %ID/g
same,tissue uptake at 4 h,in vivo; [13],4.36 ± 1.88 %ID/g
same,tissue uptake at 24 h,in vivo; [13],0.85 ± 0.18 %ID/g
same,tissue uptake at 1 h,in vivo; [14],0.79 ± 0.09 %ID/g
same,tissue uptake at 4 h,in vivo; [14],0.23 ± 0.05 %ID/g
same,tissue uptake at 24 h,in vivo; [14],0.03 %ID/g
same,tissue uptake at 1 h,in vivo; [15],1.41 ± 0.77 %ID/g
same,tissue uptake at 4 h,in vivo; [15],0.59 ± 0.23 %ID/g
same,tissue uptake at 24 h,in vivo; [15],0.35 ± 0.07 %ID/g
same,tissue uptake at 1 h,in vivo; [16],21 ± 3.92 %ID/g
same,tissue uptake at 4 h,in vivo; [16],26 ± 1.33 %ID/g
same,tissue uptake at 24 h,in vivo; [16],19 ± 2 %ID/g
same,tissue uptake at 4 h,"in vivo; athymic nude-Foxn1nu/Foxn1+, Biodistribution HEK-SST2 (−) tumour uptake",0.88 ± 0.37 %ID/g
same,tissue uptake at 1 h,in vivo; [17],6.48 ± 4.37 %ID/g
same,tissue uptake at 4 h,in vivo; [17],2.4 ± 1.9 %ID/g
same,tissue uptake at 24 h,in vivo; [17],0.31 ± 0.08 %ID/g
same,tissue uptake at 1 h,in vivo; [18],16.3 ± 1.83 %ID/g
same,tissue uptake at 4 h,in vivo; [18],12.6 ± 2.54 %ID/g
same,tissue uptake at 24 h,in vivo; [18],2.42 ± 0.2 %ID/g
same,tissue uptake at 1 h,in vivo; [19],0.23 ± 0.05 %ID/g
same,tissue uptake at 4 h,in vivo; [19],0.12 ± 0.06 %ID/g
same,tissue uptake at 24 h,in vivo; [19],0.05 ± 0.01 %ID/g
same,tissue uptake at 1 h,in vivo; [20],9.71 ± 2.81 %ID/g
same,tissue uptake at 4 h,in vivo; [20],6.66 ± 3.67 %ID/g
same,tissue uptake at 24 h,in vivo; [20],4.35 ± 2.87 %ID/g
same,tissue uptake at 1 h,in vivo; [21],36.5 ± 7.89 %ID/g
same,tissue uptake at 4 h,in vivo; [21],13.6 ± 3.86 %ID/g
same,tissue uptake at 24 h,in vivo; [21],1.42 ± 0.27 %ID/g
"N4-[Phe(4-Cl)][dC]Y[dPhe(4-NHCONH2)]KTC[dY]-NH2 (disulfide 2-7; SMILES C[C@@H](O)[C@@H]1NC(=O)[C@H](CCCCN)NC(=O)[C@@H](Cc2ccc(NC(N)=O)cc2)NC(=O)[C@H](Cc2ccc(O)cc2)NC(=O)[C@H](NC(=O)[C@H](Cc2ccc(Cl)cc2)NC(=O)C(CNCCN)CNCCN)CSSC[C@@H](C(=O)N[C@H](Cc2ccc(O)cc2)C(N)=O)NC1=O, printed in three-letter code: N4-p-Cl-Phe-cyclo(D-Cys-Tyr-D-Aph(Cbm)-Lys-Thr-Cys)-D-Tyr-NH2; F at 1 stands for p-Cl-Phe and F at 4 for D-Aph(Cbm), both phenylalanine derivatives; SST2 antagonist based on LM3; non-metallated peptide conjugate; also called N4-LM3; source: synthetic peptide, custom made by piChem) [TECANT-1 (N4-p-Cl-Phe-cyclo(D-Cys-Tyr-D-Aph(Cbm)-Lys-Thr-Cys)-D-Tyr-NH2)]",IC50,[5],4.14 ± 0.83 nM
"N4-[Phe(4-Cl)][dC]Y[dW]KTC[dY]-NH2 (disulfide 2-7; also: N4 chelator holds 99mTc (dioxo-99mTc(V) complex), as TECANT-2: N4-p-Cl-Phe-cyclo(D-Cys-Tyr-D-Trp-Lys-Thr-Cys)-D-Tyr-NH2; F at 1 stands for p-Cl-Phe; also called ^99mTc-N4-SS01; source: synthetic peptide (piChem), labelled with ^99mTc, used without further purification) [[^99mTc]Tc-TECANT-2]",estimated half-life of dissociation,[6],7.5 min
same,estimated half-life of dissociation,[7],40.3 min
"N4-[Phe(4-Cl)][dC]Y[dW]KTC[dY]-NH2 (disulfide 2-7; also: N4 chelator holds natural rhenium, as TECANT-2: N4-p-Cl-Phe-cyclo(D-Cys-Tyr-D-Trp-Lys-Thr-Cys)-D-Tyr-NH2; F at 1 stands for p-Cl-Phe; surrogate of the Tc complex; also called [^natRe]Re-TECANT-2; Re-complex of TECANT-2; source: synthetic peptide (piChem), Re complex made with tetrabutylammonium-tetrachloro-oxo-rhenate (V)) [^natRe-TECANT-2]",IC50,[5],4.47 ± 0.89 nM
"N4-[Phe(4-Cl)][dC]Y[dPhe(4-NHCONH2)]KTC[dY]-NH2 (disulfide 2-7; also: N4 chelator holds 99mTc (dioxo-99mTc(V) complex), as TECANT-1: N4-p-Cl-Phe-cyclo(D-Cys-Tyr-D-Aph(Cbm)-Lys-Thr-Cys)-D-Tyr-NH2; F at 1 stands for p-Cl-Phe and F at 4 for D-Aph(Cbm); source: synthetic peptide (piChem), labelled with ^99mTc, used without further purification) [[^99mTc]Tc-TECANT-1]",estimated half-life of dissociation,[6],19 min
same,estimated half-life of dissociation,[7],98 min
"N4-[Phe(4-Cl)][dC]Y[dPhe(4-NHCONH2)]KTC[dY]-NH2 (disulfide 2-7; also: N4 chelator holds natural rhenium, as TECANT-1: N4-p-Cl-Phe-cyclo(D-Cys-Tyr-D-Aph(Cbm)-Lys-Thr-Cys)-D-Tyr-NH2; F at 1 stands for p-Cl-Phe and F at 4 for D-Aph(Cbm); surrogate of the Tc complex; also called [^natRe]Re-TECANT-1; Re-complex of TECANT-1; source: synthetic peptide (piChem), Re complex made with tetrabutylammonium-tetrachloro-oxo-rhenate (V)) [^natRe-TECANT-1]",IC50,[5],5.01 ± 0.93 nM
